Where “and” joins values, the source holds several entries; their conditions need not be identical. Equal values may be shown once.
Assay: CNS penetration: total and unbound drug concentrations in tumor regions, CSF and plasma (LC-MS/MS, equilibrium dialysis);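 also: drug levels in patient tumor tissue from contrast-enhancing and non-enhancing regions sampled under MRI-guided neuronavigation, with plasma and CSF drawn during surgical resection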
Settings: for Everolimus.CSF / Everolimus.Enhancing.tumor / Everolimus.Non-enhancing.tumor / Everolimus.Plasma.conc / Everolimus.Unbound.enhancing / Everolimus.Unbound.non-enhancing / Everolimus.Unbound.plasma: per patient
[1] = Level 0: Ribociclib 400mg QD + Everolimus 2.5mg QD, sampling 1-3 Hours
[2] = Level 0: Ribociclib 400mg QD + Everolimus 2.5mg QD, sampling 7-9 Hours
[3] = Level 0: Ribociclib 400mg QD + Everolimus 2.5mg QD, sampling 23-25 Hours
[4] = Level 1: Ribociclib 600mg QD + Everolimus 2.5mg QD, sampling 1-3 Hours
[5] = Level 1: Ribociclib 600mg QD + Everolimus 2.5mg QD, sampling 7-9 Hours
[6] = Level 2: Ribociclib 600mg QD + Everolimus 5mg QD, sampling 7-9 Hours
[7] = Level 3: Ribociclib 600mg QD + Everolimus 10mg QD, sampling 7-9 Hours
[8] = Level 4: Ribociclib 600mg QD + Everolimus 50mg once on Day 5, sampling 7-9 Hours
[9] = Level 5: Ribociclib 600mg QD + Everolimus 60mg once on Day 5, sampling 7-9 Hours

SMILES: CO[C@H]1C[C@@H]2CC[C@@H](C)[C@@](O)(O2)C(=O)C(=O)N2CCCC[C@H]2C(=O)O[C@H]([C@H](C)C[C@@H]2CC[C@@H](OCCO)[C@H](OC)C2)CC(=O)[C@H](C)/C=C(\C)[C@@H](O)[C@@H](OC)C(=O)[C@H](C)C[C@H](C)/C=C/C=C/C=C/1C [Everolimus, everolimus]
- Total everolimus, CSF, MAX (2.5 mg QD 5 days): 0.4 nM
- Total everolimus, CSF, MIN (2.5 mg QD 5 days): BLQ
- Total everolimus, Enhancing tumor, MIN (2.5 mg QD 5 days): BLQ
- Total everolimus, Non-enhancing tumor, MIN (2.5 mg QD 5 days): BLQ
- Total everolimus, CSF, MAX (5 mg QD 5 days): BLQ
- Total everolimus, CSF, MED (5 mg QD 5 days): BLQ
- Total everolimus, CSF, MIN (5 mg QD 5 days): BLQ
- Total everolimus, CSF, MED (10 mg QD 5 days): 1.4 nM
- Total everolimus, CSF, MIN (10 mg QD 5 days): BLQ
- Total everolimus, Enhancing tumor, MIN (10 mg QD 5 days): BLQ
- Total everolimus, CSF, MIN (50 mg single dose): BLQ
- Total everolimus, Non-enhancing tumor, MIN (50 mg single dose): BLQ
- Total everolimus, CSF, MAX (60 mg single dose): 0.57 nM
- Total everolimus, CSF, MED (60 mg single dose): 0.57 nM
- Total everolimus, CSF, MIN (60 mg single dose): BLQ
- Total everolimus, CSF, MAX (70 mg single dose): 11.4 nM
- Total everolimus, CSF, MED (70 mg single dose): 6.35 nM
- Total everolimus, CSF, MIN (70 mg single dose): BLQ
- Everolimus.CSF [1]: BLQ
- Everolimus.Enhancing.tumor [1]: 5.92E-03 and 4.32E-03
- Everolimus.Non-enhancing.tumor [1]: 2.88E-03 and BLQ
- Everolimus.Plasma.conc [1]: 0.02558 and 0.00883
- Everolimus.Unbound.enhancing [1]: BLQ
- Everolimus.Unbound.non-enhancing [1]: BLQ
- Everolimus.Unbound.plasma [1]: BLQ
- Everolimus.CSF [2]: BLQ
- Everolimus.Enhancing.tumor [2]: BLQ and 1.69E-02
- Everolimus.Non-enhancing.tumor [2]: BLQ and 2.24E-03
- Everolimus.Plasma.conc [2]: 0.00955 and 0.00618
- Everolimus.Unbound.enhancing [2]: BLQ
- Everolimus.Unbound.non-enhancing [2]: BLQ
- Everolimus.Unbound.plasma [2]: BLQ
- Everolimus.CSF [3]: BLQ
- Everolimus.Enhancing.tumor [3]: BLQ and 4.44E-03
- Everolimus.Non-enhancing.tumor [3]: BLQ and 5.84E-03
- Everolimus.Plasma.conc [3]: 0.00384 and 0.00714
- Everolimus.Unbound.enhancing [3]: BLQ
- Everolimus.Unbound.non-enhancing [3]: BLQ
- Everolimus.Unbound.plasma [3]: BLQ
- Everolimus.CSF [4]: 3.90E-04
- Everolimus.Enhancing.tumor [4]: 4.40E-03
- Everolimus.Non-enhancing.tumor [4]: 4.72E-03
- Everolimus.Plasma.conc [4]: 0.01738
- Everolimus.Unbound.enhancing [4]: BLQ
- Everolimus.Unbound.non-enhancing [4]: BLQ
- Everolimus.Unbound.plasma [4]: BLQ
- Everolimus.CSF [5]: 2.70E-04 and 3.30E-04
- Everolimus.Enhancing.tumor [5]: 8.34E-02 and 9.20E-03
- Everolimus.Non-enhancing.tumor [5]: 3.53E-02 and 8.80E-03
- Everolimus.Plasma.conc [5]: 0.03462 and 0.01401
- Everolimus.Unbound.enhancing [5]: BLQ
- Everolimus.Unbound.non-enhancing [5]: BLQ
- Everolimus.Unbound.plasma [5]: BLQ
- Everolimus.CSF [6]: BLQ
- Everolimus.Enhancing.tumor [6]: 3.98E-02 and 1.11E-02 and 1.66E-02
- Everolimus.Non-enhancing.tumor [6]: 2.02E-02 and 9.20E-03 and 1.03E-02
- Everolimus.Plasma.conc [6]: 0.0225 and 0.0084 and 0.0281
- Everolimus.Unbound.enhancing [6]: BLQ
- Everolimus.Unbound.non-enhancing [6]: BLQ
- Everolimus.Unbound.plasma [6]: BLQ
- Everolimus.CSF [7]: BLQ and 2.50E-03 and 3.00E-04
- Everolimus.Enhancing.tumor [7]: 6.13E-02 and 2.67E-02 and BLQ
- Everolimus.Non-enhancing.tumor [7]: 3.33E-02 and 4.50E-03 and 5.00E-03
- Everolimus.Plasma.conc [7]: 0.0311 and 0.0616 and 0.0431
- Everolimus.Unbound.enhancing [7]: BLQ
- Everolimus.Unbound.non-enhancing [7]: BLQ
- Everolimus.Unbound.plasma [7]: BLQ
- Everolimus.CSF [8]: BLQ and 3.70E-04 and 1.50E-03
- Everolimus.Enhancing.tumor [8]: 5.16E-02 and 5.45E-02 and 7.41E-02
- Everolimus.Non-enhancing.tumor [8]: 2.51E-02 and 6.30E-03
- Everolimus.Plasma.conc [8]: 0.07949 and 0.06123 and 0.063
- Everolimus.Unbound.enhancing [8]: BLQ
- Everolimus.Unbound.non-enhancing [8]: BLQ
- Everolimus.Unbound.plasma [8]: 4.59E-04 and 2.99E-04 and 3.00E-04
- Everolimus.CSF [9]: 5.70E-04 and BLQ
- Everolimus.Enhancing.tumor [9]: 8.76E-02 and 3.04E-02 and 9.84E-03
- Everolimus.Non-enhancing.tumor [9]: 3.61E-02 and 1.38E-02 and 1.13E-02
- Everolimus.Plasma.conc [9]: 0.07053 and 0.09226 and 0.06809
- Everolimus.Unbound.enhancing [9]: BLQ
- Everolimus.Unbound.non-enhancing [9]: BLQ
